Experiments:
cleaved caspase-3 [1] = assay: Western blot of cleaved caspase-3 in whole-hemisphere lysates, C6 rat glioma model; assay type: in vivo; conditions: 6 d of pio treatment
Experimental: For western-blot analysis, tumor-containing hemispheres were homogenized in Tris-HCl [50 mM Tris-HCl pH8, 120 mM NaCl, 5 mM EDTA, 0.5% (v/v) NP-40, […] phenylmethylsulfonyl fluoride (PMSF)] and sonicated. Homogenates were collected by centrifugation (15 min 11000 g. 4° C.) and protein concentration in the supernatant was determined using the Bio-Rad Protein Assay (Biorad, Munich, Germany). Lysates (20-40 μg) were separated on a 7% (w/v) sodium dodecyl sulfate (SDS)-polyacrylamide gel under reducing conditions and transferred to a PVDF membrane (Millipore, Bedford, Mass., USA). Non-specific binding was blocked by incubation with 5% (w/v) skimmed milk in TBS for 2 h. Following incubation with the primary antibody overnight at 4° C. [rabbit anti-BAX 1:1000, rabbit anti-cleaved caspase-3 1:1000, mouse […] 1:1000, goat anti-MMP-9 1:1000 in TBS containing 0.1% (v/v) Tween 20] membranes were washed three times in TBS/Tween for 5 min and subsequently incubated for 120 min in TBS/Tween containing secondary peroxidase-conjugated antibody at room temperature (anti-rabbit 1:1000, anti-mouse 1:1000; anti-goat 1:1000 respectively). Signals were visualized by chemoluminescence (Pierce, Rockford, Ill., USA) and band intensities were quantified with NIH Image 1.62 software (Bethesda, Md., USA).

human glioma cells A172 = assay: MTT viability assay, human A172 glioma cells; assay type: cell-based; conditions: 30 μM pio; 3, 5 and 7 d
Experimental: Rat C6 glioma cells were grown in DMEM and human glioma cells (U87, A172) in RPMI, supplemented with 10% (v/v) fetal calf serum, 100 U/mL penicillin and 100 U/mL streptomycin in a 5% CO2 atmosphere. Primary astrocyte cultures were prepared as described previously (J Neurosci 1998; 18: 4451-60) and grown in DMEM, supplemented with 2.5% (v/v) fetal calf serum, 100 U/mL penicillin and 100 U/mL streptomycin in a 5% CO2 atmosphere. […] Experiments were performed in triplicate.

cleaved caspase-3 [2] = assay: Immunohistochemistry of cleaved caspase-3 in tumors, C6 rat glioma model; assay type: in vivo; conditions: 6 to 14 days of pio treatment, significant maximum at 9 d
Experimental: Frozen brain sections were first blocked with 5% normal goat serum or normal horse serum in PBS and subsequently incubated with rabbit anti-Ki-67 antibody (1:200 dilution), mouse anti-CS-56 (1:100 dilution), goat anti-MMP-9 (1:100 dilution) or rabbit anti-cleaved caspase-3 antibody (1:200 dilution) at 4° C. overnight. Sections were washed extensively with PBS before incubation with secondary antibodies. Incubation was carried at room temperature for 1 h. After washing with PBS three times, stained slides were mounted with PBS/glycerol (1:1) and viewed under a fluorescent microscope (Leica, Germany). […] The percentage of cleaved caspase-3 positive cells was assessed by counting the immunopositive cells in 1×10^3 tumor (DAPI stain) cells and statistically compared.

- cleaved caspase-3 expression (immunohistochemistry) (cleaved caspase-3 [2]): elevated cleaved caspase-3 expression
Structure (SMILES): CCc1ccc(CCOc2ccc(CC3SC(=O)NC3=O)cc2)nc1 (stereo not drawn) [pioglitazone, 5-[4-[2-(5-ethylpyridin-2-yl)ethoxyl]benzyl]thiazolidine-2,4-dione]
- induction of cleaved caspase-3 (densitometry) (cleaved caspase-3 [1]): 2.88 fold
- cellular viability, effect in words (human glioma cells A172): significantly reduced cellular viability
